From ChEMBL document CHEMBL1201862, “PubChem BioAssay data set” (2004)
Calls of active or inactive are those of the source. For most assays here, no stated cut-off is given here; in the data, actives have a measured EC50 and inactives only a lower limit.

Experiments:
[1] = Luminescence Cell-Based Dose Retest to Confirm Inhibitors of Cancer Stem Cells. [Related pubchem assays (depositor defined):AID2717, AID2721]; format: functional; conditions: Homo sapiens
[2] = target: T1, Heat shock factor protein 1 (Mus musculus, UniProt P38532); assay: decrease of HSF1-responsive luciferase luminescence – cell-based, NIH3T3, dose retest, confirmation (AID 2382); format: functional;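 further: NIH3T3 fibroblasts with HSF1-driven luciferase reporter stressed by proteasome inhibitor MG132; luminescence from HSF1-driven luciferase expression after 8 hours of MG132 stress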
T1 sequence (P38532 whole entry): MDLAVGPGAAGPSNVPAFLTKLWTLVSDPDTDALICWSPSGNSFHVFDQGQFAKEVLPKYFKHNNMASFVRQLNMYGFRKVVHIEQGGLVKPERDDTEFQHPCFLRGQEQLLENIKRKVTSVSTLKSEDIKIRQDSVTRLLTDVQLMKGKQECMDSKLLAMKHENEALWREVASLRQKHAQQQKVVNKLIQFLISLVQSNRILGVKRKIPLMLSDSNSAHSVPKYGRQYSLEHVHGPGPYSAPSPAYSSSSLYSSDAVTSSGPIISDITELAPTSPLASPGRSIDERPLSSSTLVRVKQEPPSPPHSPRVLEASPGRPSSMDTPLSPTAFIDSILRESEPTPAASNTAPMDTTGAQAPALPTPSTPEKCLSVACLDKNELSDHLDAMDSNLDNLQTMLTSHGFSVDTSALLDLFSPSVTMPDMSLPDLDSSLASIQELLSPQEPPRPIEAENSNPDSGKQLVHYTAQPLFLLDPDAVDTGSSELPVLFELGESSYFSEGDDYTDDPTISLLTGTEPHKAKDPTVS

[3] = Trypanosoma cruzi growth suppression in host cells – NIH3T3 host cells, beta-gal luminescence, confirmation (AID 2044); format: functional, cell-based;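 further: intracellular parasites grown in NIH/3T3 mouse fibroblasts as host cells; luminescent beta-galactosidase reporter signal from transgenic T. cruzi replicating inside host cells; inhibitors lower the luminescence signal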
[4] = NIH3T3 cell viability loss – ATP luminescence, mouse fibroblasts, counter-screen, dose response (AID 2010); format: functional, cell-based;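 further: cells exposed to compound for about 90 hours before reading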
[5] = system: Streptococcus sp. 'group A'; assay: Streptococcus pyogenes SK(-)GAS viability under kanamycin – luminescence, BacTiterGlo, confirmation, counter-screen for streptokinase expression inhibitor project, dose response (AID 1900); format: functional, organism-based
Streptococcus = assay: GAS UMAA2166 growth inhibition – luminescence, BacTiterGlo, counter-screen for streptokinase expression inhibitor project, dose response (AID 1915); format: functional, organism-based;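 further: potency for reduction of bacterial viability or growth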
[6] = viability of HCT116 lacking mutant beta-catenin – cell-based, human colon tumor, dose response (AID 1045); format: functional;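 further: HCT116 colon tumor cells with beta catenin knocked out; cells exposed to compound for 60 hours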
[7] = viability of PTEN-deleted HCT116 cells – cell-based, HCT116 PTEN knockout, dose response (AID 1047); format: functional;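 further: HCT116 colon tumor cells with PTEN knocked out; cells exposed to compound for 60 hours before readout; potency for loss of cell viability measured by luminescence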
[8] = target: T2, Corticotropin-releasing factor receptor 2/Corticotropin-releasing factor-binding protein (Homo sapiens, UniProt P24387+Q13324); assay: activators of CRF receptor 2 with binding protein – uHTS hits, confirmation (AID 602473); format: functional; conditions: read-out: EC50_Mean
T2 sequence (Q13324 whole entry): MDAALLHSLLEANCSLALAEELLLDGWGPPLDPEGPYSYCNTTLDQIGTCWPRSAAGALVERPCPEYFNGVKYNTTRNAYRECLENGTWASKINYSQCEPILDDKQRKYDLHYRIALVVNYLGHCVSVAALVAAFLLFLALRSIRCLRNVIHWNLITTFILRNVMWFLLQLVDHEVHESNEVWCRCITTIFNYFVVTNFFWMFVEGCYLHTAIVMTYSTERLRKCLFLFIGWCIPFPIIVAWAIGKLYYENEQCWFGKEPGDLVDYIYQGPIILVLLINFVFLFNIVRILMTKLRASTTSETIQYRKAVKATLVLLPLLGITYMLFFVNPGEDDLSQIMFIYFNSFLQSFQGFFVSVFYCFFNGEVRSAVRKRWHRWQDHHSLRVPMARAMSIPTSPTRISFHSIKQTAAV
T2 sequence (P24387 whole entry): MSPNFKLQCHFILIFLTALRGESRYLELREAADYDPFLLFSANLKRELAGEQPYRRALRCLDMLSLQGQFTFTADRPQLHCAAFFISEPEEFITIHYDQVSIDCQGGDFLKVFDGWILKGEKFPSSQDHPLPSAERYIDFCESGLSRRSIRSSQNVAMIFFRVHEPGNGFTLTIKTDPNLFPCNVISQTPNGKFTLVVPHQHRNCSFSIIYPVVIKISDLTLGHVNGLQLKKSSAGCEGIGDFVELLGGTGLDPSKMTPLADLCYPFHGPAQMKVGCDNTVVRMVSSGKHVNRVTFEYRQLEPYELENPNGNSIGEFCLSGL
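Wherever AC50 is given: cells exposed to compound for roughly 70 hours or longer before luminescence read.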

CC1(C)C(=O)N(c2ccccc2)C1c1ccccc1O (configuration not stated)
AC50 [1]: 2.95 µM (active)

CC1CCN(CC(=O)NC2CCCCC2)CC1
EC50 [2]: > 195 µM (not active)

CN(C)c1nc(NCc2ccccc2)nc(SCC(=O)Nc2ccc(Cl)c(Cl)c2)n1
EC50 [3]: 2.15 µM (active) | EC50 [4]: > 60 µM (inconclusive)

COc1cc(C2SCC(=O)N2CCCN(C)C)cc(OC)c1OC (configuration not stated)
EC50 [3]: 0.264 µM (active) | EC50 [4]: > 60 µM (not active)

COc1cc(OC)c(OC)cc1CN1CCCC(C(=O)c2ccccc2SC)C1 (configuration not stated)
EC50 [3]: 0.138 µM (active) | EC50 [4]: > 60 µM (not active)

Cc1ccc(-n2c(SCC(=O)N3c4ccccc4Sc4ccccc43)nnc2-c2ccncc2)cc1
EC50 [3]: 0.345 µM (active) | EC50 [4]: > 60 µM (not active)

O=c1cc(N2CCCCC2)c(-c2ccccc2)nn1Cc1cccc(Cl)c1
AC50 [1]: 3.6 µM (active)

O=C(N/N=C/c1cc(Br)cc(Br)c1O)c1cccc(S(=O)(=O)N2CCOCC2)c1
EC50 [5]: 0.765 µM (active) | EC50 (Streptococcus): 3.91 µM (active)

O=C(Nc1ccc(Cl)c(Cl)c1)Nc1cc(S(=O)(=O)N2CCOCC2)ccc1N1CCCC1
EC50 [6]: 20.3 µM (active) | EC50 [7]: 22.5 µM (active)

Cc1cccc(C)c1OCc1nc2ccccc2c(=O)n1/N=C/c1c[nH]c2ccccc12
EC50 [6]: 24.7 µM (active) | EC50 [7]: 23.6 µM (active) | EC50 [3]: 1.14 µM (active) | EC50 [4]: > 30 µM (not active)

COc1ccc(CN(C(=O)Cc2cccs2)C(C(=O)NC2CCCC2)c2ccncc2)cc1 (configuration not stated)
EC50 [3]: 2.22 µM (active) | EC50 [4]: 50.8 µM (active)

Cc1cc(C)nc(NC(=NC(=O)C(C)(C)C)NCCc2c[nH]c3ccccc23)n1
EC50 [3]: 2.34 µM (active) | EC50 [4]: > 60 µM (not active)

COc1ccc2nc(Cl)c(C#N)cc2c1
EC50 [2]: > 195 µM (not active)

CN(C)c1ccc(CNc2ccc3c(c2)ncn3C(C)(C)C)cc1
EC50 [2]: 169 µM (active)

COc1ccc(C(=O)C2CCCN(C3CSCCSC3)C2)c(OC)c1 (configuration not stated)
AC50 [1]: 0.939 µM (active)

O=C(CCc1ccccc1)Nc1ncc([N+](=O)[O-])s1
EC50 [3]: 0.951 µM (active) | EC50 [4]: > 60 µM (not active)

COc1ccccc1-n1c(S)nnc1CNC(=O)c1cccc([N+](=O)[O-])c1C
EC50 [2]: > 195 µM (not active)

O=C(Cc1csc(Nc2nc(S)nc3ccccc23)n1)NCCCN1CCN(c2cccc(Cl)c2)CC1
EC50 [5]: 8.14 µM (active) | EC50 (Streptococcus): > 150 µM (not active)

Clc1cccc(Nc2nc(-c3cccnc3)cs2)c1
EC50 [3]: 1.23 µM (active) | EC50 [4]: > 60 µM (not active)

CCOC(=O)c1c(NC(=O)c2nn(CC)cc2Br)sc2c1CCCCC2
AC50 [1]: 1.12 µM (active)

O=C(Nc1cc(C(F)(F)F)ccc1Cl)c1cccnc1
EC50 [8]: > 53 µM (inactive)

Cn1c(NC(=O)c2ccccc2NC(=O)C(C)(C)C)nc2ccccc21
EC50 [2]: > 195 µM (not active)

COc1ccc(CN2CCN(Cc3ccc(C)cc3)CC2)c(OC)c1
EC50 [3]: 0.22 µM (active) | EC50 [4]: > 60 µM (not active)

Cc1cc(=O)oc2cc(OCC#N)ccc12
EC50 [2]: > 195 µM (not active)

CN(C(=O)CSc1nc(C2CC2)nc2ccccc12)c1nc(-c2ccccc2)cs1
EC50 [6]: 12.7 µM (active) | EC50 [7]: 14.7 µM (active)

O=C(CCCNC1=NS(=O)(=O)c2ccccc21)OCC(=O)c1ccc(F)c(F)c1
EC50 [8]: 7.63 µM (active)

COc1ccc(Cl)cc1NC(=O)CN(C)C(=O)Cn1cnc2c1c(=O)n(C)c(=O)n2C
EC50 [2]: > 195 µM (not active)

O=C(c1cccc([N+](=O)[O-])c1)N1CCN(c2cccc(Cl)c2)CC1
EC50 [6]: 5.22 µM (active) | EC50 [7]: 4.8 µM (active)

CCN(Cc1ccccc1)C(=O)C1CCN(Cc2sccc2C)CC1
EC50 [2]: > 195 µM (not active)

CCOC(=O)Cn1c(COc2ccccc2OC)[n+](C)c2ccccc21
EC50 [2]: > 195 µM (not active)

COc1ccc(-c2nc3ccccc3c(=O)n2-c2cccnc2)cc1
EC50 [2]: > 195 µM (not active)

CCn1c(=O)c2c3c(sc2n2cnnc12)CCC3
EC50 [2]: > 195 µM (not active)

COc1cc2c(cc1OC)C(c1cc3cccc(C)c3nc1O)N(C(=O)c1ccco1)CC2 (configuration not stated)
EC50 [3]: 3.44 µM (active) | EC50 [4]: 10.5 µM (active)

CCc1cc2c(NCCC(=O)O)nc(C)nc2s1
EC50 [2]: > 195 µM (not active)

O=C(CCCCn1c(=O)[nH]c2ccsc2c1=O)NCc1cccnc1
EC50 [2]: > 195 µM (not active)

Cc1cccc(NC(=O)c2cc(-c3cc(C)cc(C)c3O)[nH]n2)c1
AC50 [1]: 2.86 µM (active)

COc1ccc(N2CCN(c3ncnc4scc(-c5ccc(C)cc5)c34)CC2)cc1
EC50 [3]: 2.69 µM (active) | EC50 [4]: > 60 µM (not active)

Cc1cccc(Oc2cc(NC(=O)Cn3cnc([N+](=O)[O-])n3)cc([N+](=O)[O-])c2)c1
EC50 [6]: 28.7 µM (active) | EC50 [7]: 36.1 µM (active)

CCOC(=O)c1c(NC(=O)Cc2ccccc2)sc2c1CCN(C)C2
EC50 [3]: 0.109 µM (active) | EC50 [4]: > 60 µM (not active)

Cc1cccc(NC(=O)CSCC(=O)Nc2cc(Cl)ccc2N2CCN(C)CC2)c1
EC50 [3]: 2.41 µM (active) | EC50 [4]: > 60 µM (not active)

Cc1cccc(C)c1N=C(S)N(Cc1ccccc1)Cc1cccnc1
EC50 [3]: 1.46 µM (active) | EC50 [4]: > 60 µM (not active)

Nc1ccc(C23CC4CC(CC(O)(C4)C2)C3)cc1
EC50 [2]: 41.2 µM (active)

Cc1cc(Br)c(NC(=O)CN2CC=C(c3ccccc3)CC2)c(Br)c1
EC50 [3]: 0.255 µM (active) | EC50 [4]: > 60 µM (not active)

CC1CC1C(=O)N1CCN(S(=O)(=O)c2cc(C(F)(F)F)cc(C(F)(F)F)c2)CC1 (configuration not stated)
AC50 [1]: 2.76 µM (active)

CC(NC(=O)c1cccnc1)C(c1cccs1)N1CCOCC1 (configuration not stated)
EC50 [3]: > 60 µM (not active) | EC50 [4]: > 60 µM (not active)

CCCNC(=O)Cn1c(=O)/c(=C/c2ccc(-c3ccc([N+](=O)[O-])cc3)o2)s/c1=C\C(=O)C(C)(C)C
EC50 [8]: 2.05 µM (active)

CCN1CC2([N+](=O)[O-])C=CC(=O)C([N+](=O)[O-])(C1)C2CC(=O)c1ccccc1 (configuration not stated)
EC50 [2]: > 195 µM (not active)

CC1(c2ccc(OC(F)F)cc2)NC(=O)N(CC(=O)c2ccc3c(c2)OCO3)C1=O (configuration not stated)
EC50 [8]: 5.4 µM (active)

COc1ccc(C2=NN(CN3C(=O)C(=O)c4ccccc43)C(c3ccc(Br)cc3)C2)cc1 (configuration not stated)
EC50 [6]: 26.2 µM (active) | EC50 [7]: 27.3 µM (active)

COC(=O)NC(=S)Nc1ccc(Oc2ccc(Cl)cc2Cl)c(Cl)c1
EC50 [3]: 1.83 µM (active) | EC50 [4]: > 60 µM (not active)

CCCCCn1nc(C)c(/C=N\NC(=O)c2cc(C)oc2C)c1C
EC50 [8]: > 53 µM (inactive)

COc1ccc2c(c1)C=C(CN1CCN(Cc3ccccc3C)C(CCO)C1)CO2 (configuration not stated)
EC50 [3]: 0.391 µM (active) | EC50 [4]: > 30 µM (not active)

O=[N+]([O-])c1cn(-c2nc(-c3ccco3)cc(C(F)(F)F)n2)cn1
EC50 [3]: 0.723 µM (active) | EC50 [4]: > 30 µM (not active)

C=CCOCCN(CCOCC=C)C1=NS(=O)(=O)c2ccccc21
EC50 [2]: > 195 µM (not active)

CCC(O)(CC)C(=O)N/N=C/c1cc(Br)cc(Br)c1O
EC50 [5]: 2.9 µM (active) | AC50 [1]: 12.6 µM (active) | EC50 (Streptococcus): 3.08 µM (active)

CC1CC(C)CN(S(=O)(=O)c2ccc(C(=O)Nc3nnc(C4CC4)o3)cc2)C1 (configuration not stated)
EC50 [5]: 1.25 µM (active) | EC50 (Streptococcus): 5.33 µM (active)

Cc1cccc(C)c1OCc1cc(C(=O)N2C[C@@H]3C[C@H]4C[C@@H](C3)C[C@@H]2C4)no1
AC50 [1]: 1.27 µM (active)

Cc1nnsc1[S+]([O-])c1ccc(Cl)c(Cl)c1 (configuration not stated)
EC50 [2]: 12.4 µM (active)

Cc1ccc(C(C(=O)NCc2ccco2)N(C(=O)CNC(=O)c2cccs2)c2c(C)cccc2C)cc1 (configuration not stated)
EC50 [6]: 8.32 µM (active) | EC50 [7]: 6.55 µM (active)
